{"source": "patent US11992495B2", "about": "(THE REGENTS OF THE UNIVERSITY OF CALIFORNIA, priority 2017, dated 2024)", "system": "lymph node mononuclear cells (T cell proliferation in response to HEL)", "assay": "T cell recall responses to HEL, 3H-thymidine uptake (proliferation)", "type": "cell-based, Mice", "details": "alprazolam (Xanax) alone, any of the dosages tested", "method": "Mice were injected with hen egg lysozyme (HEL, a prototypic foreign antigen) in 50% complete Freund's adjuvant (CFA) in their hind food-pad. […] During the last 16 h of a 96 h incubation period, […] ^3H thymidine was added into each well."}
{"smiles": "Cc1nnc2n1-c1ccc(Cl)cc1C(c1ccccc1)=NC2", "note": "[alprazolam]", "values": [{"measurement": "effect on T cell proliferation", "result": "did not have a significant effect"}]}
